Experimental data published in patent US4198506A, “2-Carboxyalkyl-2,3-dihydro-6-mercapto-s-triazolo[4,3-b]-pyridazin-3-ones” (Bristol-Myers Company, priority 1979, dated 1980).
Converted amounts (≈) assume the structure as drawn. “And” between values parts separate entries of the source, which are not always exact repeats. Equal values may be shown once. Read-outs that look alike come from different tables or passages of the source.

What was measured:
[1] = test system: Shig. dysenteriae; assay: In vitro antibacterial activity (Steers' agar dilution MIC); type: cell-based; conditions: Shigella dysenteriae
[2] = test system: Miscellaneous (Salmonella, Shigella, Citrobacter); assay: microbe, parasite or virus in culture; conditions: read-out: Geometric Mean MIC
[3] = test system: Sal. typhosa; assay: In vitro antibacterial activity (Steers' agar dilution MIC); type: cell-based
Source text: (§1) In vitro Antibacterial Activity of BB-S493 Compared with
(§2) BB-S479 and Cefamandole (Determined by Steers' Agar Dilu-
(§3) tion Method on Mueller-Hinton Agar Plate)
(§4) In vitro antibacterial activity of BB-S 525 compared with
(§5) BB-S 479 and cefamandole (determined by Steers' agar dilution
(§6) method on Mueller-Hinton agar plate)

[4] = test system: Shig. flexneri; assay: as above; type: cell-based
Source text: as §1, §2, §3, §4, §5, §6

[5] = test system: S. aureus; assay: as above; type: cell-based; conditions: Staphylococcus aureus
Source text: as §1, §2, §3, §4, §5, §6

[6] = test system: E. coli; assay: as above; type: cell-based; conditions: Escherichia coli
Source text: as §1, §2, §3, §4, §5, §6

[7] = test system: Kl. pneumoniae; assay: as above; type: cell-based; conditions: Klebsiella pneumoniae
Source text: as §1, §2, §3, §4, §5, §6

[8] = test system: Shig. sonnei; assay: as above; type: cell-based; conditions: Shigella sonnei
Source text: as §1, §2, §3, §4, §5, §6

[9] = test system: Proteus (indole-); assay: In vitro activity (geometric mean MIC, serial dilution); type: cell-based; conditions: 6 strains; Mueller-Hinton agar, inoculum 10^4 dilution; MIC cutoff 200 mcg./ml.; read-out: Geometric Mean MIC
[10] = test system: S. marcescens; assay: as above; type: cell-based; conditions: Serratia marcescens; 16 strains; Mueller-Hinton agar, inoculum 10^4 dilution; MIC cutoff 200 mcg./ml.; read-out: Geometric Mean MIC
[11] = test system: Ps. aeruginosa; assay: In vitro antibacterial activity (Steers' agar dilution MIC); type: cell-based
[12] = test system: B. anthracis; assay: microbe, parasite or virus in culture; type: cell-based; conditions: Bacillus anthracis
[13] = test system: S. aureus (Methicillin-R); assay: In vitro activity (geometric mean MIC, serial dilution); type: cell-based; conditions: Staphylococcus aureus; 15 strains; Mueller-Hinton agar, inoculum 10^4 dilution; MIC cutoff 200 mcg./ml.
[14] = test system: S. aureus (sensitive); assay: as above; type: cell-based; conditions: Staphylococcus aureus, read-out: Geometric Mean MIC
[15] = test system: E. coli (sensitive); assay: as above; type: cell-based; conditions: Escherichia coli, read-out: Geometric Mean MIC
[16] = test system: Klebsiella sp.; assay: as above; type: cell-based; conditions: 12 strains, Mueller-Hinton agar, inoculum 10^4 dilution, MIC cutoff 200 mcg./ml., read-out: Geometric Mean MIC
[17] = test system: Pr. mirabilis; assay: In vitro antibacterial activity (Steers' agar dilution MIC); type: cell-based; conditions: Proteus mirabilis
[18] = test system: Serr. marcescens; assay: as above; type: cell-based; conditions: Serratia marcescens
[19] = test system: Enterobacter (sensitive); assay: In vitro activity (geometric mean MIC, serial dilution); type: cell-based; conditions: 3 strains, Mueller-Hinton agar, inoculum 10^4 dilution, MIC cutoff 200 mcg./ml., read-out: Geometric Mean MIC
[20] = test system: S. aureus Smith; assay: In vivo activity (Mice, sc); conditions: several determinations listed
Source text: |In vivo Activity of BB-[…] and Related Compounds (Mice, sc) | (PD50 (mgm./kg.)

[21] = test system: S. aureus penicillinase+); assay: In vitro activity (geometric mean MIC, serial dilution); type: cell-based; conditions: Staphylococcus aureus, read-out: Geometric Mean MIC
[22] = test system: S. pyogenes; assay: as above; type: cell-based; conditions: Streptococcus pyogenes; 10 strains; Mueller-Hinton agar, inoculum 10^4 dilution; MIC cutoff 200 mcg./ml.
[23] = test system: Proteus (indole +); assay: as above; type: cell-based; conditions: read-out: Geometric Mean MIC
[24] = test system: Proteus (indole +, cephalosporinase +); assay: as above; type: cell-based; conditions: 5 strains; Mueller-Hinton agar, inoculum 10^4 dilution; MIC cutoff 200 mcg./ml.; read-out: Geometric Mean MIC
[25] = test system: Enterobacter (Cephalosporinase +); assay: as above; type: cell-based; conditions: 7 strains, Mueller-Hinton agar, inoculum 10^4 dilution, MIC cutoff 200 mcg./ml.
[26] = test system: Providencia sp.; assay: as above; type: cell-based; conditions: read-out: Geometric Mean MIC

`Cn1nnnc1SCC1=C(C(=O)O)N2C(=O)[C@@H](NC(=O)[C@H](O)c3ccccc3)[C@H]2SC1` [Cefamandole, reference compound] gave an MIC ([1]; table 2 (BB-S493), Shig dysenteriae) of 0.2 µg/mL (≈ 0.432 µM), an MIC ([1]; table 4 (BB-S 525), Shig. dysenteriae) of 0.1 µg/mL (≈ 0.216 µM) and an MIC [2] of 0.3 µg/mL (≈ 0.649 µM). For the same molecule, the MIC ([3]; table 2 (BB-S493), Sal. typhosa A9498) was 0.1 µg/mL (≈ 0.216 µM), the MIC ([3]; table 4 (BB-S 525), Sal. typhosa) was 0.1 µg/mL (≈ 0.216 µM) and the MIC ([4]; Shigella flexneri, table 2 (BB-S493), Shig. flexneri A9684, read-out: MIC) was 3.1 µg/mL (≈ 6.7 µM). The MIC ([4]; table 4 (BB-S 525), Shig. flexneri) was 3.1 µg/mL (≈ 6.7 µM), the MIC ([5]; table 2 (BB-S493), S. aureus A9497) was 0.05 µg/mL (≈ 0.108 µM) and the MIC ([5]; table 2 (BB-S493), S. aureus BX-1633 A9606) was 0.2 µg/mL (≈ 0.432 µM). It also gave an MIC ([5]; table 2 (BB-S493), S. aureus Smith A9537) of 0.1 µg/mL (≈ 0.216 µM), an MIC ([5]; table 4 (BB-S 525), S. aureus (strain not given)) of 0.05 µg/mL (≈ 0.108 µM) and an MIC ([5]; table 4 (BB-S 525), S. aureus BX-1633) of 0.2 µg/mL (≈ 0.432 µM). For the same molecule, the MIC ([5]; table 4 (BB-S 525), S. aureus Smith) was 0.2 µg/mL (≈ 0.432 µM), the MIC ([6]; ATCC8739, table 2 (BB-S493), E. coli ATCC 8739, read-out: MIC) was 0.05 µg/mL (≈ 0.108 µM) and the MIC ([6]; ATCC8739, table 4 (BB-S 525), E. coli ATCC 8739) was 6.3 µg/mL (≈ 13.6 µM). It also gave an MIC ([6]; table 2 (BB-S493), E. coli A9660, read-out: MIC) of 0.1 µg/mL (≈ 0.216 µM), an MIC ([6]; table 2 (BB-S493), E. coli A15147, read-out: MIC) of 3.1 µg/mL (≈ 6.7 µM) and an MIC ([6]; table 2 (BB-S493), E. coli A15810, read-out: MIC) of 0.2 µg/mL (≈ 0.432 µM). The MIC ([6]; table 2 (BB-S493), E. coli BX-1373, read-out: MIC) was 0.4 µg/mL (≈ 0.865 µM), the MIC ([6]; table 2 (BB-S493), E. coli Juhl A15119, read-out: MIC) was 0.4 µg/mL (≈ 0.865 µM) and the MIC ([6]; table 2 (BB-S493), E. coli NIHJ, read-out: MIC) was 0.025 µg/mL (≈ 0.0541 µM). For the same molecule, the MIC ([6]; table 4 (BB-S 525), E. coli BX-1373, read-out: MIC) was 0.2 µg/mL (≈ 0.432 µM), the MIC ([6]; table 4 (BB-S 525), E. coli Juhl, read-out: MIC) was 0.4 µg/mL (≈ 0.865 µM) and the MIC ([6]; table 4 (BB-S 525), E. coli NIHJ, read-out: MIC) was 0.1 µg/mL (≈ 0.216 µM). The MIC ([6]; table 4 (BB-S 525), E. coli, strain not given, 1st line, read-out: MIC) was 0.1 µg/mL (≈ 0.216 µM), the MIC ([6]; table 4 (BB-S 525), E. coli, strain not given, 2nd line, read-out: MIC) was 0.05 µg/mL (≈ 0.108 µM) and the MIC ([6]; table 4 (BB-S 525), E. coli, strain not given, 3rd line, read-out: MIC) was 1.6 µg/mL (≈ 3.46 µM). The MIC ([7]; table 2 (BB-S493), Kl. pneumoniae A9678) was 1.6 µg/mL (≈ 3.46 µM), the MIC ([7]; table 2 (BB-S493), Kl. pneumoniae A9867) was 0.8 µg/mL (≈ 1.73 µM) and the MIC ([7]; table 2 (BB-S493), Kl. pneumoniae A9977) was 0.4 µg/mL (≈ 0.865 µM). The MIC ([7]; table 2 (BB-S493), Kl. pneumoniae A15130) was 0.4 µg/mL (≈ 0.865 µM), the MIC ([7]; table 4 (BB-S 525), Kl. pneumoniae, 1st line) was 3.1 µg/mL (≈ 6.7 µM) and the MIC ([7]; table 4 (BB-S 525), Kl. pneumoniae, 2nd line) was 0.2 µg/mL (≈ 0.432 µM). For the same molecule, the MIC ([7]; table 4 (BB-S 525), Kl. pneumoniae, 3rd line) was 0.8 µg/mL (≈ 1.73 µM), the MIC ([7]; table 4 (BB-S 525), Kl. pnuemoniae, 4th line) was 0.8 µg/mL (≈ 1.73 µM) and the MIC ([8]; table 2 (BB-S493), Shig. sonnei A9516) was 0.05 µg/mL (≈ 0.108 µM). The MIC ([8]; table 4 (BB-S 525), Shig. sonnei) was 0.2 µg/mL (≈ 0.432 µM), the MIC [9] was 0.6 µg/mL (≈ 1.3 µM) and the MIC [10] was 34 µg/mL (≈ 73.5 µM). The MIC ([11]; Pseudomonas aeruginosa, table 2 (BB-S493), Ps. aeruginosa A9843, read-out: MIC) was over 100 µg/mL, the MIC ([11]; table 2 (BB-S493), Ps. aerugionsa A9930) was over 100 µg/mL and the MIC ([11]; table 4 (BB-S 525), Ps. aeruginosa, 1st line) was over 100 µg/mL. The MIC ([11]; table 4 (BB-S 525), Ps. aeruginosa, 2nd line) was over 100 µg/mL, the MIC ([12]; table 2 (BB-S493), B. anthracis A9504) was 0.2 µg/mL (≈ 0.432 µM) and the MIC ([12]; table 4 (BB-S 525), B. anthracis) was 0.05 µg/mL (≈ 0.108 µM). The MIC [13] was 2.4 µg/mL (≈ 5.19 µM), the MIC [14] was 0.1 µg/mL (≈ 0.216 µM) and the MIC [15] was 0.3 µg/mL (≈ 0.649 µM). The MIC [16] was 2.4 µg/mL (≈ 5.19 µM), the MIC ([17]; table 2 (BB-S493), Pr. mirabilis A9554) was 0.8 µg/mL (≈ 1.73 µM) and the MIC ([17]; table 2 (BB-S493), Pr. mirabilis A9900) was 0.8 µg/mL (≈ 1.73 µM). It also gave an MIC ([17]; table 4 (BB-S 525), Pr. mirabilis, 1st line) of 0.4 µg/mL (≈ 0.865 µM), an MIC ([17]; table 4 (BB-S 525), Pr. mirabilis, 2nd line, read-out: MIC) of 0.2 µg/mL (≈ 0.432 µM) and an MIC ([18]; table 4 (BB-S 525), Serr. marcescens) of 50 µg/mL (≈ 108 µM). The MIC ([18]; table 2 (BB-S493), Serr. marcescens A20019) was 50 µg/mL (≈ 108 µM), the MIC [19] was 1 µg/mL (≈ 2.16 µM) and the ED50 ([20]; Staphylococcus aureus, read-out: PD50) was 0.93 mg/kg. The PD50 [20] was 0.74 mgm./kg. and 0.6 mgm./kg. and 0.8 mgm./kg, the MIC [21] was 0.4 µg/mL (≈ 0.865 µM) and the MIC [22] was 0.04 µg/mL (≈ 0.0865 µM). The MIC [23] was 0.5 µg/mL (≈ 1.08 µM), the MIC [24] was 3.6 µg/mL (≈ 7.78 µM) and the MIC [25] was 4.7 µg/mL (≈ 10.2 µM). The MIC [26] was 0.7 µg/mL (≈ 1.51 µM).
